Source: article PMC6858373 (Scientific Reports, 2019)
Counter-ions that a name gives are not always drawn. Like-named read-outs stand apart in the source and are kept apart here.

Experiments:
Clone V cells = conditions: human
[1] = molecular target: full-length P. pyralis luciferase (Photinus pyralis, UniProt P08659, K549A/L550V/N119G/N50D/S548I); assay type: cell-based
[2] = molecular target: T1, FGF14:Nav1.6 C-tail complex (Homo sapiens, UniProt Q92915+Q9UQD0); test: Split-luciferase complementation assay (LCA) in Clone V double stable HEK293 cells; assay type: cell-based
T1 construct: polymerase chain reaction (PCR) amplification of the FGF14 open reading frame (nt 1–855); C-terminal fragment of Nav1.6 (amino acids 1763–1976) fused with CD4ΔC-tail (amino acids 1–395); expressed in transfected cells
T1 sequence (Q92915 1-252 isoform Q92915-2): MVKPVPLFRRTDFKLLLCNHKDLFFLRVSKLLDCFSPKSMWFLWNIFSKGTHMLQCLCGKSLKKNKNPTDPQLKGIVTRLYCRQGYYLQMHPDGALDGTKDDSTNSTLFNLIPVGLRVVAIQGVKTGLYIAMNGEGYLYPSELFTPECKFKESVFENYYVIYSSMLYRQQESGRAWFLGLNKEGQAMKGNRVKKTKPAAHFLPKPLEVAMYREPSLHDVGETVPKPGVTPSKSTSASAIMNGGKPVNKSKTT
T1 sequence (Q9UQD0 1763-1976 limits assumed): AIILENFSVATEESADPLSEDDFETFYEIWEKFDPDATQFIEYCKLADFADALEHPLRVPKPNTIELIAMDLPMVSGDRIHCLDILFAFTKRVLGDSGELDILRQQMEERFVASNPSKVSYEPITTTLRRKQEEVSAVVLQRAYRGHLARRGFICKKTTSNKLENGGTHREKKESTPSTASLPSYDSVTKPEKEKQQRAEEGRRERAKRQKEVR

in vitro = conditions: human
[3] = CC_NCI screening, normalized to on-plate 0.3% DMSO controls
[4] = CC_NCI screening, biological replicate Set 1, normalized to on-plate 0.3% DMSO controls
[5] = CC_NCI screening, biological replicate Set 2, normalized to on-plate 0.3% DMSO controls
[6] = CC_NCI screening, biological replicate Set 1, normalized to on-plate 0.3% DMSO controls (n=16 per plate)
[7] = CC_NCI screening, biological replicate Set 2, normalized to on-plate 0.3% DMSO controls (n=16 per plate)
[8] = average of Set 1 and Set 2, normalized to 0.3% DMSO controls

Sequence of full-length P. pyralis luciferase (P08659 whole entry N50D/N119G/S548I/K549A/L550V, looked up): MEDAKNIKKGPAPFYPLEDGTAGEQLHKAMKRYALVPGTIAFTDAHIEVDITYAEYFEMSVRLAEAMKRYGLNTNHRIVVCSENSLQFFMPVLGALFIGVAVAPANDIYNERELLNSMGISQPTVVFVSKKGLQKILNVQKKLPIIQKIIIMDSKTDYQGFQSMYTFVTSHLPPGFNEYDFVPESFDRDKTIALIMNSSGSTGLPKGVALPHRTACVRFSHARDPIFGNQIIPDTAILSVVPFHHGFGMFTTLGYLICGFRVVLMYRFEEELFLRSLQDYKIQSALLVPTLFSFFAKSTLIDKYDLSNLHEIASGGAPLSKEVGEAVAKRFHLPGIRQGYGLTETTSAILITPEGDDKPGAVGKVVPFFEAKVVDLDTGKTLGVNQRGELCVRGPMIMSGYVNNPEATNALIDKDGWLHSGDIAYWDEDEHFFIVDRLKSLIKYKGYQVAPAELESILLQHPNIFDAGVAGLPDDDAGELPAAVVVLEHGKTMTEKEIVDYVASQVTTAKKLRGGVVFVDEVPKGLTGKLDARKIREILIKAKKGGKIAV

| SMILES | Toxicity Assay Z-score (CTB cell viability) (Clone V cells) | Luciferase Assay % Lum (full-length luciferase counter-screen) [1, 3] | Luciferase Assay Z-score (full-length luciferase counter-screen) [1, 3] | Split Luciferase Assay % Lum Set 1 [2] | Split Luciferase Assay %Lum Avg [2] | Split Luciferase Assay %Lum Set 2 [2] | Split Luciferase Assay Z-score Set 1 [2, 4] | Split Luciferase Assay Z-score Set 2 [2, 5] | viability (in vitro) | Toxicity Assay Z-score (CTB cell viability) (Clone V cells; 16 h, 30 µM) | Split Luciferase Assay % Lum Set 1 [2, 6] | Split Luciferase Assay %Lum Set 2 [2, 7] | Split Luciferase Assay %Lum Avg [2, 8] | viability at 16 h, 30 µM (in vitro; Clone V cells) | Luciferase Assay % Lum (full-length luciferase counter-screen) [1] | Luciferase Assay Z-score (full-length luciferase counter-screen) [1] | viability at 16 h, 30 µM (in vitro) | Split Luciferase Assay Z-score Set 1 [2] | Split Luciferase Assay Z-score Set 2 [2] |
| --- | --- | --- | --- | --- | --- | --- | --- | --- | --- | --- | --- | --- | --- | --- | --- | --- | --- | --- | --- |
| O=NN(CCCl)C(=O)NC1CCCCC1 [Lomustine] | 0.41 | 109.33% | 1.20 | 101.43% | 116.25% | 131.08% | 0.12 | 2.53 | 103% | – | – | – | – | – | – | – | – | – | – |
| CC1(C)CNc2cc(NC(=O)c3cccnc3NCc3ccncc3)ccc21 [MOTESANIB] | – | 76.36% | -3.03 | – | – | – | -1.77 | -0.86 | – | -0.04 | 78.05% | 89.47% | 83.76% | 99.7% | – | – | – | – | – |
| CC(=O)O[C@]1(C(C)=O)CC[C@H]2[C@@H]3C=C(C)C4=CC(=O)CC[C@]4(C)[C@H]3CC[C@@]21C [Megestrol acetate] | – | – | – | – | – | – | 4.24 | 2.87 | – | 0.79 | 152.52% | 135.24% | 143.88% | – | 99.64% | -0.05 | 106% | – | – |
| Sc1ncnc2nc[nH]c12 [Mercaptopurine] | – | 102.01% | 0.26 | – | – | – | 1.52 | 1.01 | – | 0.87 | 118.82% | 112.35% | 115.59% | – | – | – | 106% | – | – |
| CN(Cc1cnc2nc(N)nc(N)c2n1)c1ccc(C(=O)N[C@@H](CCC(=O)O)C(=O)O)cc1 [Methotrexate] | – | 94.27% | -0.73 | – | – | – | 0.73 | 0.24 | – | 0.27 | 109.04% | – | 106.01% | 102% | – | – | – | – | – |
| CO[C@@]12[C@H](COC(N)=O)C3=C(C(=O)C(C)=C(N)C3=O)N1C[C@@H]1N[C@@H]12 [Mitomycin] | 2.45 | 110.98% | 1.41 | – | – | – | 0.73 | -0.01 | 118% | – | 109.04% | 99.87% | 104.45% | – | – | – | – | – | – |
| Clc1ccc(C(c2ccccc2Cl)C(Cl)Cl)cc1 (stereo not shown) [Mitotane] | – | 54.78% | -5.79 | – | – | – | -6.12 | -5.17 | – | -0.85 | 24.24% | 36.41% | 30.33% | – | – | – | 93.9% | – | – |
| Oc1cccc(-c2nc(N3CCOCC3)c3oc4ncccc4c3n2)c1 [PI-103] | – | – | 0.79 | – | – | – | 0.91 | -0.43 | – | 2.64 | 111.21% | 94.67% | 102.94% | 119% | – | – | – | – | – |
| CC(=O)O[C@H]1C(=O)[C@@]2(C)[C@H]([C@H](OC(=O)c3ccccc3)[C@]3(O)C[C@H](OC(=O)[C@H](O)[C@@H](NC(=O)c4ccccc4)c4ccccc4)C(C)=C1C3(C)C)[C@]1(OC(C)=O)CO[C@@H]1C[C@@H]2O [Paclitaxel] | – | 114.27% | 1.83 | – | – | – | -1.03 | -0.43 | – | 1.59 | 87.29% | 94.67% | 90.98% | – | – | – | 111% | – | – |
| CNNCc1ccc(C(=O)NC(C)C)cc1 [Procarbazine hydrochloride] | – | – | – | – | – | – | 1.52 | -0.26 | – | 1.21 | 118.82% | 96.75% | 107.78% | – | 99.34% | -0.08 | 109% | – | – |
| COc1cc(F)c(F)c(Nc2ccc(I)cc2F)c1NS(=O)(=O)C1(C[C@H](O)CO)CC1 [RDEA119] | – | 66.81% | -4.25 | – | – | – | -7.09 | -7.37 | – | 0.34 | 12.28% | 9.36% | 10.82% | – | – | – | 102% | – | – |
| CC/C(=C(\c1ccccc1)c1ccc(OCCN(C)C)cc1)c1ccccc1 [Tamoxifen citrate] | – | – | – | 4.67% | 2.86% | 1.04% | – | – | – | -7.92 | – | – | – | – | 59.05% | -5.24 | 43.4% | -7.70 | -8.05 |
| COc1cc([C@@H]2c3cc4c(cc3[C@@H](O[C@@H]3O[C@@H]5CO[C@@H](c6cccs6)O[C@H]5[C@H](O)[C@H]3O)[C@H]3COC(=O)[C@H]23)OCO4)cc(OC)c1O [Teniposide] | – | 92.82% | -0.92 | – | – | – | 1.61 | 2.11 | – | 0.66 | 119.91% | 125.88% | 122.89% | 105% | – | – | – | – | – |
| S=P(N1CC1)(N1CC1)N1CC1 [Thiotepa] | – | 95.81% | -0.54 | 104.69% | 115.28% | 125.88% | 0.38 | 2.11 | – | 1.01 | – | – | – | 107% | – | – | – | – | – |
| C1CN1c1nc(N2CC2)nc(N2CC2)n1 [Triethylenemelamine] | 0.82 | – | – | 118.82% | 117.67% | 116.51% | – | – | 106% | – | – | – | – | – | 108.47% | 1.08 | – | 1.52 | 1.34 |
| NC(=O)c1ccc(N(C(N)=O)c2c(F)cccc2F)nc1-c1ccc(F)cc1F [VX-702] | – | 93.91% | -0.78 | – | – | – | 1.35 | -2.63 | – | 0.75 | 116.65% | 67.62% | 92.13% | – | – | – | 105% | – | – |
| CCCCC(=O)OCC(=O)[C@]1(O)Cc2c(O)c3c(c(O)c2[C@@H](O[C@H]2C[C@H](NC(=O)C(F)(F)F)[C@H](O)[C@H](C)O2)C1)C(=O)c1c(OC)cccc1C3=O [Valrubicin] | – | – | – | – | – | – | 2.84 | 1.17 | – | 0.60 | 135.13% | 114.43% | 124.78% | – | 92.36% | -0.98 | 104% | – | – |
| CC[C@]1(O)C[C@@H]2CN(CCc3c([nH]c4ccccc34)[C@@](C(=O)OC)(c3cc4c(cc3OC)N(C)[C@H]3[C@@](O)(C(=O)OC)[C@H](OC(C)=O)[C@]5(CC)C=CCN6CC[C@]43[C@@H]65)C2)C1 [Vinblastine sulfate] | – | 109.75% | 1.25 | – | – | – | 9.52 | 5.32 | – | 1.05 | 217.75% | 165.41% | 191.58% | – | – | – | 108% | – | – |
